Laboratory results reported in patent US8846949B2, “Pyrrolopyrazoles as N-type calcium channel blockers” (Janssen Pharmaceutica NV, priority 2012, dated 2014).
Like-named read-outs stand apart in the source and are kept apart here.

Columns and labels:
[1] = biological target: T1, N-type calcium channel α1B (Cav2.2), β3 and α2δ subunits (Homo sapiens, UniProt Q00975); test: Functional assay, antagonism of N-type calcium channel (FDSS calcium mobilization response to KCl depolarization); type: cell-based; conditions: for IC50: HEK stable cell line, 50 mM KCl depolarization, six-point concentration-response; for inhibition at 0.33 µM: 0.33 μM compound, FDSS, 50 mM KCl
T1 construct: expressed in transfected cells
Outline: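 HEK cells stably co-expressing α1B (Cav2.2), β3 and α2δ subunits were loaded with calcium dye, preincubated with compound for 5 min, then depolarized with 50 mM KCl and read for 3 min by FDSS fluorescence. IC50 from six-point curves, normalized to KCl maximum and buffer minimum.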

N-type calcium channel = biological target: T2, N-type calcium channel (Homo sapiens, UniProt Q00975); test: Automated electrophysiology assay (QPatch-HT whole-cell patch clamp); type: cell-based
T2 construct: expressed in transfected cells
Protocol: Cells were grown in T175 flasks to 50%-90% confluence. At the time of use, cells were enzymatically treated with Detachin (Genlantis, San Diego, Calif. USA), centrifuged, rinsed, and resuspended in 293 SFM II media (Life Technologies, Grand Island, N.Y. U.S.A.) supplemented with 25 mM HEPES (Sigma-Aldrich, St. Louis, Mo. U.S.A.) to a concentration of 2-3×10^6 cells/mL. Cells were added to the automated cell preparation station on the QPatch-HT (Sophion Biosciences, North Brunswick, N.J. U.S.A.), and following a 10- to 30-min recovery period with gentle stirring, the assay protocol was initiated. During the automated cell preparation, cells were collected, centrifuged and resuspended in an extracellular (EC) solution containing 132 mM NaCl, 1.8 mM CaCl2, 5.4 mM KCl, 0.8 mM MgCl2, 10 mM glucose, and 10 mM HEPES (pH=7.4), adjusted with sucrose to approximately 315 m0sm. The QPlate was primed with an intracellular solution containing 135 mM CsCl, 10 mM EGTA, 4 MgATP, 0.3 NaGTP, and 20 mM HEPES (pH=7.2), adjusted to approximately 290 m0sm with deionized water and the EC solution. Cells were added to the prepared QPlate wells by robotic pipettes of the QPatch-HT.
For cells determined to be in stable whole-cell patch clamp, the EC solution was replaced with a barium (Ba)/triethylammonium (TEA) solution containing 140 mM TEA-Cl, 10 mM BaCl2, 0.8 mM MgCl2, 10 mM glucose and 10 mM HEPES (pH=7.4). High (40 mM) BaCl2 concentrations were made with adjustments to TEA-C1 (90 mM) to maintain the osmolarity. From a resting potential of −80 mV, a train of depolarizing pulses (15 pulses at 5 Hz, +20 mV) was delivered to the cell once every 30 sec for eight trains (4 min total), and the resulting currents were measured during a control period (no compound). This protocol was repeated for each subsequent addition of control buffer with or without compound (three periods total, each with four trains). The current generated in the 1st and 15th pulses of the last train of each period in the presence of each drug concentration was normalized to the current generated during the control period at the respective pulses (representing low- and high-frequency stimulation, respectively). Data from both the second and third drug application periods were analyzed for each cell. A final addition of Ba/TEA solution containing 60-100 μM CdCl2 was made to block all N-type current and to “zero” the currents for each cell. All buffer/compound additions were made using a “spitting” feature of the QPatch-HT, which added three repetitions of 5 μL solution at the beginning of each recording period.
To examine closed-state inactivation, cells were subjected to a channel-activating 50-msec depolarizing step pulse from −80 to +10 mV, followed by a 5-sec nonactivating step to voltages ranging from −130 to −60 mV in 10 mV increments and then a 50-ms step from −80 to +10 mV to assess the remaining current. Currents from the activating voltage pulse were normalized to the peak value of the test pulse following the −130 mV step and fit to a Boltzman equation to obtain the V1/2. Roscovitine (Sigma-Aldrich) was prepared as a 100 mM stock in dimethyl sulfoxide and diluted to the indicated working concentrations. […]. Compounds of Formula (I) were diluted first into dimethyl sulfoxide and then into 10% pluronic F-127 in water (Life Technologies), sonicated for 1 min and diluted into EC buffer. Vehicle controls were run in parallel in all experiments.
Unless otherwise indicated, statistics for comparing among electrophysiological results utilized a one-way analysis of variance with Fisher's least squares determination test for pair-wise comparison.

[2] = high frequency (15th pulse of train, 5 Hz), read-out: QPatch at High Frequency % Inhibition
[3] = low frequency (1st pulse of train), read-out: QPatch at Low Frequency % Inhibition

T1 sequence (Q00975 whole entry): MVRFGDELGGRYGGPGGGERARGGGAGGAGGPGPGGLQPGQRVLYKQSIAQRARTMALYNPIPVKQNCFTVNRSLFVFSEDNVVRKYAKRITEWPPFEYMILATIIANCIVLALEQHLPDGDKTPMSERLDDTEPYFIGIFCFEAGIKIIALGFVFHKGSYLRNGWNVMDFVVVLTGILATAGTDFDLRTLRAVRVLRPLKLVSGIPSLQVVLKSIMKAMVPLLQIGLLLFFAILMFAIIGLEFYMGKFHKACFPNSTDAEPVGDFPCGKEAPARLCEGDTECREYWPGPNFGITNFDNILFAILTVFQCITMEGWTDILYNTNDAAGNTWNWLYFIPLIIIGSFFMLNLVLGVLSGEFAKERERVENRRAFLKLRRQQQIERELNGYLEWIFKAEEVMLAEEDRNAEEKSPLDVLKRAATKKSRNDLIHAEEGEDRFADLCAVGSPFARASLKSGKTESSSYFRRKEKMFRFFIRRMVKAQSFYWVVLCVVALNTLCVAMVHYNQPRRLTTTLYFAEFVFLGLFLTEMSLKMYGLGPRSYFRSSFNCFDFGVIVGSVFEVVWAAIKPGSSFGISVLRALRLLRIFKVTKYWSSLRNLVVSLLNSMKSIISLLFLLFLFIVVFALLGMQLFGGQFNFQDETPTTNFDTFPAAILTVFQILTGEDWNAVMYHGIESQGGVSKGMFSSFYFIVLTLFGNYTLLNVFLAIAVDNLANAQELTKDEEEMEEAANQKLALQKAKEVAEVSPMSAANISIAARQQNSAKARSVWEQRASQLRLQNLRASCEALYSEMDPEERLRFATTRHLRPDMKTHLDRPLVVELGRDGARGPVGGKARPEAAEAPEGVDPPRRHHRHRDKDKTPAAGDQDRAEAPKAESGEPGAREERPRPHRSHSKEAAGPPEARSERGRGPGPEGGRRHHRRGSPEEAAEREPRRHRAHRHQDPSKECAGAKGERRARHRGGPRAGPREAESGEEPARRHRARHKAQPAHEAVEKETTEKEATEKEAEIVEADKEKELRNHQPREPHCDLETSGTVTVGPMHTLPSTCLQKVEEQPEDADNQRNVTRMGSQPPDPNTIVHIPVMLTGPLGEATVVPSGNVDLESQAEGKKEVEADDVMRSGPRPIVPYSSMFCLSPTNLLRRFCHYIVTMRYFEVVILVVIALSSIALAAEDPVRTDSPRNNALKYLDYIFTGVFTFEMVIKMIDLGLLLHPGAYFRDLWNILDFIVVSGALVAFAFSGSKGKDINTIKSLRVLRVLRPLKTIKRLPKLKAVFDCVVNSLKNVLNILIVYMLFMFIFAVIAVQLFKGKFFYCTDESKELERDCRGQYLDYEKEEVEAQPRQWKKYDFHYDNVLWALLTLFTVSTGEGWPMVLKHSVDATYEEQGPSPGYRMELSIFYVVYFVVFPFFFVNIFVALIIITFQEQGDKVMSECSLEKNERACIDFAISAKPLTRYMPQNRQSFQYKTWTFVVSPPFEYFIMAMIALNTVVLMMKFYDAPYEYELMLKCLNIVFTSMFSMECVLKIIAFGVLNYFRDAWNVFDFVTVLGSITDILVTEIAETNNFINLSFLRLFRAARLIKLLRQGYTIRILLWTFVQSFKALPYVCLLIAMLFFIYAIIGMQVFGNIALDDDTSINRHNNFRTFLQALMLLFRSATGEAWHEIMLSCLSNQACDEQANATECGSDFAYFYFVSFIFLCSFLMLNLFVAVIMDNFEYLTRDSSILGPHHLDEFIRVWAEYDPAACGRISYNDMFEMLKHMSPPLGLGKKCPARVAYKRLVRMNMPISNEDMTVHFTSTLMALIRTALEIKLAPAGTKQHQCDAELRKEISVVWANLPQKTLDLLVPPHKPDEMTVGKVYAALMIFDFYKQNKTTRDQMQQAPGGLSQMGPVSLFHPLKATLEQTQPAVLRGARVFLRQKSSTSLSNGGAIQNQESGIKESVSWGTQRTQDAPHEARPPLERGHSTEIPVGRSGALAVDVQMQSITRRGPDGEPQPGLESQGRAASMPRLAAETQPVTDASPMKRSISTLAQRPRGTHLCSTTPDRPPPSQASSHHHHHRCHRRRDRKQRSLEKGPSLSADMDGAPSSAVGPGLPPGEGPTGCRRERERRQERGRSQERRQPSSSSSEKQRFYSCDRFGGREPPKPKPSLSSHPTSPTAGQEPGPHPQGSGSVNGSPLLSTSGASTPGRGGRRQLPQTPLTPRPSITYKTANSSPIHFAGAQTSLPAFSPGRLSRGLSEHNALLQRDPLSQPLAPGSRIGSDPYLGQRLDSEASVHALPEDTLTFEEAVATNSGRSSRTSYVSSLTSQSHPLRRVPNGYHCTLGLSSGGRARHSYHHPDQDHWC
T1 sequence (P54284 whole entry partner): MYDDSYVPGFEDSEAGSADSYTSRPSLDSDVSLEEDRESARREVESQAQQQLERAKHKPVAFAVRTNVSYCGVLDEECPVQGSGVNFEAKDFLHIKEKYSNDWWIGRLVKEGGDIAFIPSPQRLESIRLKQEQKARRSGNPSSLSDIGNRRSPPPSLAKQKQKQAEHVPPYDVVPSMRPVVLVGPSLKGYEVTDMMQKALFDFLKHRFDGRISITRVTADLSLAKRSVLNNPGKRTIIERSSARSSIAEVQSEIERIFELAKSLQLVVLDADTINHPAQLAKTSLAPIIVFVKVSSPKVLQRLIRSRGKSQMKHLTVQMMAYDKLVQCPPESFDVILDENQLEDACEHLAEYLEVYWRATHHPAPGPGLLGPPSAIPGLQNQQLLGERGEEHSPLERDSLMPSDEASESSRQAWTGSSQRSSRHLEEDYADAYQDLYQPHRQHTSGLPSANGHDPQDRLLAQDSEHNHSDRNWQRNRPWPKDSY
T1 sequence (P54289 25-956 partner limits assumed): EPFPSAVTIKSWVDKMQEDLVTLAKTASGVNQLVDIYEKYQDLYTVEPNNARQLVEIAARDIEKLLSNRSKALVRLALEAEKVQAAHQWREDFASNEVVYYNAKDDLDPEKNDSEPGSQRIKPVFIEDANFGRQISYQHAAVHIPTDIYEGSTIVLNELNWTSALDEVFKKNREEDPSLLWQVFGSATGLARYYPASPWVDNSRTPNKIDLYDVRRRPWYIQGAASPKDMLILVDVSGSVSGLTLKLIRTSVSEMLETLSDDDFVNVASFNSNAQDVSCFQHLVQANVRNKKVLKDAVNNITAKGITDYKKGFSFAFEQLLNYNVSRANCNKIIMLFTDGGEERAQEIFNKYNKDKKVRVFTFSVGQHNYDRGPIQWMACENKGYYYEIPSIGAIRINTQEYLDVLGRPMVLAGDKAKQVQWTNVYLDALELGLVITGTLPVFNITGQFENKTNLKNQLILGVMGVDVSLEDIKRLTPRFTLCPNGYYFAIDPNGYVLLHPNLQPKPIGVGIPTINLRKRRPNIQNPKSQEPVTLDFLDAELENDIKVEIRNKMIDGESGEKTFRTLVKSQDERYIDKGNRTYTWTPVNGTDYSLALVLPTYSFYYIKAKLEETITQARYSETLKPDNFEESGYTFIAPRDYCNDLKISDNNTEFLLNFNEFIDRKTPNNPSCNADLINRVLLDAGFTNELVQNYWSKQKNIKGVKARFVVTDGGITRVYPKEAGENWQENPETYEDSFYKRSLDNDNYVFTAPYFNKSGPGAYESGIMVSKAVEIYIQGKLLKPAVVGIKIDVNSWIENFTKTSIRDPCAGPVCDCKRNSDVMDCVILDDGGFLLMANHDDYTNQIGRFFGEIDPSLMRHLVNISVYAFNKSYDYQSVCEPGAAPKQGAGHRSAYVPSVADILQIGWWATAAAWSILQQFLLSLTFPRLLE
T1 sequence (P54289 957-1103 partner limits assumed): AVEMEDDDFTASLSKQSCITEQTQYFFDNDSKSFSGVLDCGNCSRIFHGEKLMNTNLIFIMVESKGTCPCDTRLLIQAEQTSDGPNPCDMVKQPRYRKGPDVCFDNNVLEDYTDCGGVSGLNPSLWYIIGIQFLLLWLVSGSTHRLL
T2 sequence (Q00975 whole entry): as the sequence (Q00975 whole entry) above
T2 sequence (P54284 whole entry partner): as the sequence (P54284 whole entry partner) above
T2 sequence (P54289 25-956 partner limits assumed): as the sequence (P54289 25-956 partner limits assumed) above
T2 sequence (P54289 957-1103 partner limits assumed): as the sequence (P54289 957-1103 partner limits assumed) above

Row | Structure (SMILES) | IC50 [1] | inhibition at 0.1 µM (N-type calcium channel; [2]) | inhibition at 0.1 µM (N-type calcium channel; [3]) | inhibition at 0.33 µM [1] | inhibition at 1 µM (N-type calcium channel; [2]) | inhibition at 1 µM (N-type calcium channel; [3]) | inhibition at 0.25 µM (N-type calcium channel; [2]) | inhibition at 0.25 µM (N-type calcium channel; [3])
1 | CN(C)S(=O)(=O)N1Cc2nn(-c3ccccc3OCC(F)F)c(-c3ccc(Cl)cc3)c2C1 [Cpd 95, 3-(4-Chlorophenyl)-2-[2-(2,2-difluoroethoxy)phenyl]-N,N-dimethyl-2,6-dihydropyrrolo[3,4-c]pyrazole-5(4H)-sulfonamide] | 0.05 µM | 23% | -4% | 79% | – | – | – | –
2 | COc1ccc(-c2c3c(nn2-c2ccccc2OC)CN(S(=O)(=O)C(C)C)C3)cn1 [Cpd 97, 2-(2-Methoxyphenyl)-3-(6-methoxypyridin-3-yl)-5-[(1-methylethyl)sulfonyl]-2,4,5,6-tetrahydropyrrolo[3,4-c]pyrazole] | 0.043 µM | – | – | 67% | 60% | 40% | – | –
3 | COC(=O)C1CCN(S(=O)(=O)N2Cc3nn(-c4ccccc4OC)c(-c4ccc(Cl)cc4)c3C2)CC1 [Cpd 58, Methyl 1-{[3-(4-chlorophenyl)-2-(2-methoxyphenyl)-2,6-dihydropyrrolo[3,4-c]pyrazol-5(4H)-yl]sulfonyl}piperidine-4-carboxylate] | 0.005 µM | 52% | 53% | – | – | – | – | –
4 | FC(F)(F)Oc1ccccc1-n1nc2c(c1-c1ccc(Cl)cc1)CN(c1ccc3nc(Cl)ccc3c1)C2 [Cpd 27, 2-Chloro-6-[3-(4-chlorophenyl)-2-[2-(trifluoromethoxy)phenyl]-2,6-dihydropyrrolo[3,4-c]pyrazol-5(4H)-yl]quinoline] | 0.093 µM | – | – | – | – | -1% | – | –
5 | CC(C)(C)OC(=O)NCC(=O)N1Cc2nn(-c3ccccc3OC(F)(F)F)c(-c3ccc(Cl)cc3)c2C1 [Cpd 22, tert-Butyl{2-[3-(4-chlorophenyl)-2-[2-(trifluoromethoxy)phenyl]-2,6-dihydropyrrolo[3,4-c]pyrazol-5(4H)-yl]-2-oxoethyl}carbamate] | 0.24 µM | – | – | – | 28% | 13% | – | –
6 | CC1CCN(S(=O)(=O)N2Cc3nn(-c4cccc5c4OCC5)c(-c4ccc(Cl)cc4)c3C2)CC1 [Cpd 86, 3-(4-Chlorophenyl)-2-(2,3-dihydro-1-benzofuran-7-yl)-5-[(4-methylpiperidin-1-yl)sulfonyl]-2,4,5,6-tetrahydropyrrolo[3,4-c]pyrazole] | 0.007 µM | 33% | 20% | 96% | – | – | – | –
7 | CCCC(C)S(=O)(=O)N1Cc2nn(-c3ccccc3OC)c(-c3ccc(Cl)cc3)c2C1 (stereo not shown) [Cpd 41, 3-(4-Chlorophenyl)-2-(2-methoxyphenyl)-5-[(1-methylbutyl)sulfonyl]-2,4,5,6-tetrahydropyrrolo[3,4-c]pyrazole] | 0.019 µM | 40% | 7% | 90% | 91% | 80% | – | –
8 | CCc1ccccc1-n1nc2c(c1-c1ccc(Cl)cc1)CN(C(=O)CNC(=O)OC(C)(C)C)C2 [Cpd 11, tert-Butyl{2-[3-(4-chlorophenyl)-2-(2-ethylphenyl)-2,6-dihydropyrrolo[3,4-c]pyrazol-5 (4H)-yl]-2-oxoethyl}carbamate] | 0.1 µM | – | – | – | 68% | 37% | 31% | 14%
9 | CC1CCN(S(=O)(=O)N2Cc3nn(-c4cccc5c4OCO5)c(-c4ccc(Cl)cc4)c3C2)CC1 [Cpd 83, 2-(1,3-Benzodioxol-4-yl)-3-(4-chlorophenyl)-5-[(4-methylpiperidin-1-yl)sulfonyl]-2,4,5,6-tetrahydropyrrolo[3,4-c]pyrazole] | 0.02 µM | 27% | 12% | 92% | – | – | – | –
10 | CCc1ccccc1-n1nc2c(c1-c1ccc(Cl)cc1)CN(S(C)(=O)=O)C2 [Cpd 2, 3-(4-Chlorophenyl)-2-(2-ethylphenyl)-5-(methylsulfonyl)-2,4,5,6-tetrahydropyrrolo[3,4-c]pyrazole] | 0.085 µM | – | – | – | 22% | -9% | – | –
11 | CC(C)S(=O)(=O)N1Cc2nn(-c3cccc4c3OCO4)c(-c3ccc(Cl)cc3)c2C1 [Cpd 81, 2-(1,3-Benzodioxol-4-yl)-3-(4-chlorophenyl)-5-[(1-methylethyl)sulfonyl]-2,4,5,6-tetrahydropyrrolo[3,4-c]pyrazole] | 0.02 µM | – | -19% | 89% | – | – | – | –
12 | COc1ccccc1-n1nc2c(c1-c1ccc(Cl)cc1)CN(S(=O)(=O)C(C)C)C2 [Cpd 31, 3-(4-Chlorophenyl)-2-(2-methoxyphenyl)-5-[(1-methylethyl)sulfonyl]-2,4,5,6-tetrahydropyrrolo[3,4-c]pyrazole] | 0.01 µM | 47% | 11% | 94% | – | – | – | –
13 | CCS(=O)(=O)N1Cc2nn(-c3ccccc3N(C)C)c(-c3ccc(Cl)cc3)c2C1 [Cpd 89, 2-[3-(4-Chlorophenyl)-5-(ethylsulfonyl)-5,6-dihydropyrrolo[3,4-c]pyrazol-2(4H)-yl]-N,N-dimethylaniline] | 0.028 µM | 34% | 10% | 90% | – | – | – | –

Molecules with a lower IC50 [1], results first:

Row | IC50 [1] | inhibition at 0.1 µM (N-type calcium channel; [2]) | inhibition at 0.1 µM (N-type calcium channel; [3]) | inhibition at 0.33 µM [1] | inhibition at 1 µM (N-type calcium channel; [2]) | inhibition at 1 µM (N-type calcium channel; [3]) | inhibition at 0.25 µM (N-type calcium channel; [2]) | inhibition at 0.25 µM (N-type calcium channel; [3]) | Structure (SMILES)
14 | 0.002 µM | 50% | 40% | – | – | – | – | – | CCOc1ccccc1-n1nc2c(c1-c1ccc(Cl)cc1)CN(S(=O)(=O)C1CCCCC1)C2 [Cpd 52, 3-(4-Chlorophenyl)-5-(cyclohexylsulfonyl)-2-(2-ethoxyphenyl)-2,4,5,6-tetrahydropyrrolo[3,4-c]pyrazole]
15 | 0.002 µM | 46% | 36% | – | – | – | – | – | CCOc1ccccc1-n1nc2c(c1-c1ccc(Cl)cc1)CN(S(=O)(=O)N(C)C)C2 [Cpd 54, 3-(4-Chlorophenyl)-2-(2-ethoxyphenyl)-N,N-dimethyl-2,6-dihydropyrrolo[3,4-c]pyrazole-5(4H)-sulfonamide]
16 | 0.003 µM | 36% | 28% | – | – | – | – | – | CCN(CC)S(=O)(=O)N1Cc2nn(-c3ccccc3OC)c(-c3ccc(Cl)cc3)c2C1 [Cpd 56, 3-(4-Chlorophenyl)-N,N-diethyl-2-(2-methoxyphenyl)-2,6-dihydropyrrolo[3,4-c]pyrazole-5(4H)-sulfonamide]
17 | 0.003 µM | 50% | 42% | – | – | – | – | – | CCOc1ccccc1-n1nc2c(c1-c1ccc(Cl)cc1)CN(S(=O)(=O)C(C)C)C2 [Cpd 50, 3-(4-Chlorophenyl)-2-(2-ethoxyphenyl)-5-[(1-methylethyl)sulfonyl]-2,4,5,6-tetrahydropyrrolo[3,4-c]pyrazole]
18 | 0.002 µM | 51% | 28% | – | – | – | – | – | COc1ccccc1-n1nc2c(c1-c1ccc(Cl)cc1)CN(S(=O)(=O)N1CCOCC1)C2 [Cpd 59, 3-(4-Chlorophenyl)-2-(2-methoxyphenyl)-5-(morpholin-4-ylsulfonyl)-2,4,5,6-tetrahydropyrrolo[3,4-c]pyrazole]
